For one assay, the system named is LoVo. Nature of the assay: Cytotoxicity assay (SRB), LoVo. The format is cell-based. Particulars: Homo sapiens, LoVo, 72 h, LoVo cells, SRB, read-out: In Vitro Cellular Activity IC50 LOVO. Summed up:
(§1)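 Cells were seeded overnight in RPMI 1640 with 5% FBS at 37 °C, 7% CO2 (12000/well BT474, 4000 HCT-116, 6000 LoVo, 6000 MCF-7), then exposed to compound dilutions for 3 days (6 days for BT474). Survival versus untreated controls was measured by TCA fixation and SRB staining at 540 nm.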

Another assay has as its system BT474. Nature of the assay: Cytotoxicity assay (SRB), BT474. The assay is classed as cell-based. In short, it runs like this:
as §1

For a further assay, the system named is HCT-116. Nature of the assay: Cytotoxicity assay (SRB), HCT-116. The format is cell-based. The note with it: Homo sapiens, HCT-116, 72 h, HCT116 cells, SRB, read-out: In Vitro Cellular Activity IC50 HCT116. In short, it runs like this:
as §1

A further assay addresses T1, cyclin D1/cdk 4 enzyme (Homo sapiens, UniProt P11802).
T1 construct: made in house; host or cells: Sf9 insect cells, recombinant baculovirus
Nature of the assay: CDK4 ELISA kinase assay (phospho-Rb ser 795 detection). The assay is classed as biochemical. Summed up: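 Inhibition was derived from A450 relative to control wells lacking compound, following an anti-phospho-Rb Ser795 sandwich of HRP detection. The reactions combined coated GST-Rb fragment, 200 μM ATP and baculovirus-expressed cyclin/CDK enzymes, incubated for 1 h at 30° C.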
(In an ELISA, binding on a coated surface is turned into a signal by an enzyme label.)

The subject of another assay is MCF-7. The assay is described as follows: Cytotoxicity assay (SRB), MCF-7. The assay is classed as cell-based. The note with it: Homo sapiens, MCF7, 72 h, MCF-7 cells, SRB, read-out: In Vitro Cellular Activity IC50 MCF-7. Summed up:
as §1

The target in another assay is T2, cyclin E/CDK2 enzyme (Homo sapiens, UniProt P24941).
T2 construct: made in house; host or cells: Sf9 insect cells, recombinant baculovirus
The assay is described as follows: CDK2 ELISA kinase assay (phospho-Rb ser 795 detection). The assay is classed as biochemical. The protocol:
(§2) • 1. High-binding ELISA microtiter plates (Costar) were coated with 40 μl of the kinase substrate (GST fusion of C-terminal fragment of the retinoblastoma susceptibility gene product) diluted to 10 μg/ml in tris-buffered saline (TBS), overnight at 4° C. • 2. Non-specific binding sites were blocked for 1 hour at 4° C. with Superblock in TBS (Pierce), and the plates rinsed with water. • 3. For the screen, 1.5 μl of test compound (200 μg/ml stock in 20% DMSO/20 mM HEPES, pH 7.5) was added to each well. Final dose of the test compound in the assay was 10 ug/ml. […] The kinase reaction (30 μl) was dispensed into each well. Reactions contained 200 μM ATP, 0.5 mg/ml bovine serum albumin (BSA; Sigma), and 0.5 μl partially purified cyclin D1/cdk 4 enzyme*. The enzyme complex is expressed in insect cells (Sf9) infected with recombinant baculovirus and partially purified using ammonium sulfate fractionation. Reaction volumes were adjusted to 30 μl with kinase assay buffer (50 mM HEPES, pH 7.5, 10 mM MgCl2, 5% glycerol, 10 mM 2-mercaptoethanol). • *: For CDK2 assay, 1.0 μl cyclin E/CDK2 enzyme (diluted 1:1000 in kinase assay buffer) was used. The enzyme is isolated from insect cells (Sf9) infected with recombinant baculovirus and partially purified using ammonium sulfate fractionation. For CDK1 assay, 0.08 μl cyclin B/CDK1 enzyme [New England BioLabs; the enzyme is isolated from insect cells (Sf9) infected with recombinant baculovirus carrying human cdc 2 and human cyclin B] was used.
(§3) […] • 5. Plates were incubated at 30° C. for 1 hour. • 6. The reaction mixture was removed by aspiration and replaced with 250 μl TBS containing 0.1% Tween-20 and 5% nonfat dry milk (blocking buffer). The plates were incubated at 4° C. for 1 hour. • 7. The blocking buffer was removed and replaced with 50 μl of the primary antibody [anti-phospho-Rb ser 795 (New England BioLabs) diluted 1:1000 in blocking buffer]. Incubation was at 4° C. for 16-20 hours. • 8. The wells were rinsed 3 times with 250 μl of TBS containing 0.1% Tween-20 followed by the addition of 50 μl of secondary antibody [anti-rabbit IgG conjugated to horseradish peroxidase (Amersham Life Science) diluted 1:1000 in blocking buffer]. • 9. After a 1 hour incubation at room temperature, the wells were rinsed 3 times with 250 μl of TBS/0.1% Tween 20. • 10. TMB (3,3′,5,5′-tetramethylbenzidine dihydrochloride) substrate solution (100 μl; Pierce) was added to each well and the color development reaction allowed to proceed 5-10 minutes at room temperature with shaking. The reaction was stopped by the addition of 2N sulfuric acid (100 μl) and the absorbance values read at 450 nm in a microplate reader (Molecular Devices). Analysis of Results: • 1. The percentage of the absorbance value in wells containing the test compound relative to control wells (no test agent) was determined. • 2. IC50 values of selected compounds were determined from inhibition curves, after subtracting background values (no substrate).

Another assay addresses T3, cyclin B/CDK1 enzyme (Homo sapiens, UniProt P06493).
T3 construct: purchased New England BioLabs; host or cells: Sf9 insect cells, recombinant baculovirus
The assay is described as follows: CDK1 ELISA kinase assay (phospho-Rb ser 795 detection). The format is biochemical. The protocol:
as §2, §3

Setting [1] is: Homo sapiens, BT-474, 144 h, BT474 cells, 6 days, SRB; read-out: In Vitro Cellular Activity IC50 BT474.
Where [2] appears, read: In Vitro Enzyme Assay, cyclin D1/cdk 4, read-out: CDK4 IC50.
Where [3] appears, read: In Vitro Enzyme Assay, cyclin E/CDK2, read-out: CDK2 IC50.
The mark [4] stands for this setting: In Vitro Enzyme Assays, 200 μM ATP, read-out: CDK4 IC50.
[5] abbreviates: In Vitro Enzyme Assays, read-out: CDK2 IC50.
The mark [6] stands for this setting: In Vitro Enzyme Assays, read-out: CDK1 IC50.
Where [7] appears, read: Homo sapiens, BT-474, 144 h, BT474 cells, SRB, 6 days; read-out: In Vitro Cellular Activity IC50 BT474.

The IC50 is the concentration at which inhibition is half-maximal.

Each structure is given as a SMILES string. Read-outs that look alike come from different tables or passages of the source.

T3 sequence (P06493 whole entry): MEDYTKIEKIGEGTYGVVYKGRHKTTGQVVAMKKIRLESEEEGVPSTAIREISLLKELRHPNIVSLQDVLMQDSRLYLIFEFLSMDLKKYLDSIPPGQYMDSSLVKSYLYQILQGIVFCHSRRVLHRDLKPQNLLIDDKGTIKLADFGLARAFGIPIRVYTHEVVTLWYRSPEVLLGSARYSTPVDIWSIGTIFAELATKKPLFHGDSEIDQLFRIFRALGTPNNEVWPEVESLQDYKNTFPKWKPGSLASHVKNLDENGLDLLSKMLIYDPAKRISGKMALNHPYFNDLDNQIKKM
T3 sequence (P14635 whole entry partner): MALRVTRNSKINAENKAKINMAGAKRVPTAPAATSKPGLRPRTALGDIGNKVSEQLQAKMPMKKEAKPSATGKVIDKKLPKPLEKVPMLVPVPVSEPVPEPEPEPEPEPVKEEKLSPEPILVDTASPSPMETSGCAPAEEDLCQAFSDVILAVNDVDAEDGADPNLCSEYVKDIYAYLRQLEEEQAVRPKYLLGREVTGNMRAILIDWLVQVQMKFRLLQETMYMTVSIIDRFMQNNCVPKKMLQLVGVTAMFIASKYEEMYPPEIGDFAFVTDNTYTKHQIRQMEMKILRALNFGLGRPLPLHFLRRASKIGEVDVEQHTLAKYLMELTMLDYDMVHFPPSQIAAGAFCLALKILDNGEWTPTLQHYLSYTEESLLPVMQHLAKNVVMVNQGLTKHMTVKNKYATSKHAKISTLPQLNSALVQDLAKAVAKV
T1 sequence (P11802 whole entry, species assumed): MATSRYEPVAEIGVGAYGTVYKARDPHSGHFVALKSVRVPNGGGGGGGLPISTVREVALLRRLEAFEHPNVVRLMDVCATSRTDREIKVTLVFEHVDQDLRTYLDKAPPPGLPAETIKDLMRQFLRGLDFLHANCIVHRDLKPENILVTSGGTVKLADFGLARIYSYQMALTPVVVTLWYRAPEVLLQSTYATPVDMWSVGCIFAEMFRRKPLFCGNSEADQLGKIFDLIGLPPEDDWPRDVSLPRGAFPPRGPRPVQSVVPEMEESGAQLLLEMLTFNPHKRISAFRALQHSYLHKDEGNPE
T1 sequence (P24385 whole entry partner, species assumed): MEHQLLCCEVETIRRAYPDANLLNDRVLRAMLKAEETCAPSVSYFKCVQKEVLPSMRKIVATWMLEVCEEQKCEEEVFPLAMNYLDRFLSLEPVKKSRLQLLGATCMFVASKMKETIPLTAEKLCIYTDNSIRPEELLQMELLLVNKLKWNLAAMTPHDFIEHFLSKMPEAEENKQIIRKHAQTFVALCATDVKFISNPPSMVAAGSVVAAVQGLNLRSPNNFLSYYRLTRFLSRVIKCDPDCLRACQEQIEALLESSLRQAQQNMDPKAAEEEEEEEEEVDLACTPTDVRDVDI

For the compound `N#CCc1ccc(C=Cc2ccc3c(c2)C(=CNCc2ccc(O)c(O)c2)C(=O)NC3=O)cc1` [Example 805, [4-(2-{4-[(3,4-Dihydroxy-benzylamino)-methylene]-1,3-dioxo-1,2,3,4-tetrahydro-isoquinolin-6-yl}-vinyl)-phenyl]-acetonitrile], the IC50 in the assay with LoVo (3 days) turned out to be 36.3 µM; in the assay on BT474 (setting [1]), 21.9 µM; in the assay on HCT-116 (3 days), 13.8 µM; at cyclin D1/cdk 4 enzyme (setting [2]), 0.29 µM; in the assay with MCF-7 (3 days), 33.9 µM; at cyclin E/CDK2 enzyme (setting [3]) it was 23.1 µM.

Turning to `O=C(O)C=Cc1ccc(-c2ccc3c(c2)C(=CNCc2ccc(O)c(O)c2)C(=O)NC3=O)cc1` [Example 788, 3-(4-{4-[(3,4-Dihydroxy-benzylamino)-methylene]-1,3-dioxo-1,2,3,4-tetrahydro-isoquinolin-6-yl}-phenyl)-acrylic acid], the IC50 at cyclin D1/cdk 4 enzyme (setting [2]) was found to be 0.2 µM; at cyclin B/CDK1 enzyme (In Vitro Enzyme Assay, cyclin B/CDK1, read-out: CDK1 IC50) it was 17.6 µM; at cyclin E/CDK2 enzyme (setting [3]), 17.6 µM.

As for `CN(C)CCNC(=O)C1CCN(c2ccc(N/C=C3\C(=O)NC(=O)c4ccc(I)cc43)cc2)CC1` [Example 433, N-[2-(Dimethylamino)ethyl]-1-(4-{[(Z)-(6-iodo-1,3-dioxo-2,3-dihydroisoquinolin-4(1H)-ylidene)methyl]amino}phenyl)piperidine-4-carboxamide], the half-maximal inhibitory concentration (IC50) in the assay with LoVo (3 days) is 2.8 µM; with BT474 (setting [1]), 4.5 µM; in the assay on HCT-116 (3 days), 2 µM; on cyclin D1/cdk 4 enzyme (setting [4]) it was 1.2 µM; in the assay on MCF-7 (3 days) it was 3.1 µM; at cyclin E/CDK2 enzyme (setting [5]), more than 50 µM.

With `O=C1NC(=O)c2ccc(Br)cc2/C1=C/NCc1ccc(O)c(O)c1` [Example 40, (4Z)-6-Bromo-4-{[(3,4-dihydroxybenzyl)amino]methylene}isoquinoline-1,3(2H,4H)-dione], the IC50 at cyclin D1/cdk 4 enzyme (setting [4]) is 0.04 µM; on cyclin B/CDK1 enzyme (setting [6]), more than 50 µM; at cyclin E/CDK2 enzyme (setting [5]) it was more than 50 µM.

As for `CN1CCN(c2ccc(N/C=C3\C(=O)NC(=O)c4ccc(-c5ccc(C=O)o5)cc43)cc2)CC1` [Example 124, 5-[(4Z)-4-({[4-(4-Methylpiperazin-1-yl)phenyl]amino}methylene)-1,3-dioxo-1,2,3,4-tetrahydroisoquinolin-6-yl]-2-furaldehyde], the IC50 was 5 µM with LoVo (three days); 9.1 µM with BT474 (setting [7]); 2.6 µM with HCT-116 (three days); 0.36 µM at cyclin D1/cdk 4 enzyme (setting [4]); 7.9 µM with MCF-7 (three days); more than 50 µM on cyclin E/CDK2 enzyme (setting [5]).

For `O=C1NC(=O)c2ccc(I)cc2/C1=C/NCc1cc(O)c(-c2ccoc2)cc1F` [Example 520, 4-[(2-Fluoro-4-furan-3-yl-5-hydroxy-benzylamino)-methylene]-6-iodo-4H-isoquinoline-1,3-dione], the IC50 in the assay with LoVo (3 days) was 0.9 µM; in the assay on BT474 (setting [1]), 0.66 µM; in the assay with HCT-116 (3 days), 1.2 µM; at cyclin D1/cdk 4 enzyme (setting [2]) it was 0.01 µM; in the assay on MCF-7 (3 days), 2.2 µM; on cyclin E/CDK2 enzyme (setting [3]) it was 12.1 µM.

Turning to `COc1ccc(CNC=C2C(=O)NC(=O)c3ccc(C=CCN4CC(=O)NC4=O)cc32)cc1O` [Example 826, 6-[3-(2,4-Dioxo-imidazolidin-1-yl)-propenyl]-4-[(3-hydroxy-4-methoxy-benzylamino)-methylene]-4H-isoquinoline-1,3-dione], the half-maximal inhibitory concentration (IC50) with LoVo (3 days) is more than 50 µM; with BT474 (setting [1]), more than 50 µM; with HCT-116 (3 days), 36.9 µM; on cyclin D1/cdk 4 enzyme (setting [2]), 0.11 µM; with MCF-7 (3 days) it was more than 50 µM; at cyclin E/CDK2 enzyme (setting [3]), 12.9 µM.

As to `O=C1NC(=O)c2ccc(I)cc2/C1=C/NCc1ccc(-c2cccnc2)c(O)c1` [Example 515, 4-[(3-Hydroxy-4-pyridin-3-yl-benzylamino)-methylene]-6-iodo-4H-isoquinoline-1,3-dione], the IC50 is 0.38 µM with LoVo (3 days); 0.34 µM in the assay with BT474 (setting [1]); 0.44 µM in the assay on HCT-116 (3 days); 1.1 µM in the assay with MCF-7 (3 days); 3.6 µM on cyclin E/CDK2 enzyme (setting [3]).

In the case of `O=C1NC(=O)c2ccc(-c3ccoc3)cc2/C1=C/NCc1ccc(OC(F)F)c(O)c1` [Example 199, (4Z)-4-({[4-(Difluoromethoxy)-3-hydroxybenzyl]amino}methylene)-6-(3-furyl)isoquinoline-1,3(2H,4H)-dione], the IC50 in the assay with LoVo (three days) is 4.1 µM; in the assay on BT474 (setting [7]), 1.3 µM; in the assay with HCT-116 (three days), 6.4 µM; on cyclin D1/cdk 4 enzyme (setting [4]), less than 0.005 µM; with MCF-7 (three days), 1.9 µM; on cyclin B/CDK1 enzyme (setting [6]), more than 50 µM.

As for `O=C1NC(=O)c2ccc(Br)cc2/C1=C/NCc1ccc(OCCO)c(O)c1` [Example 139, (4Z)-6-Bromo-4-({[3-hydroxy-4-(2-hydroxyethoxy)benzyl]amino}methylene)isoquinoline-1,3(2H,4H)-dione], the IC50 in the assay with LoVo (three days) is 26 µM; with BT474 (setting [7]) it was 15 µM; in the assay with HCT-116 (three days), more than 50 µM; at cyclin D1/cdk 4 enzyme (setting [4]), 0.04 µM; with MCF-7 (three days) it was more than 50 µM; at cyclin B/CDK1 enzyme (setting [6]), more than 50 µM.

With `CN1CC2CC1CN2c1ccc(NC=C2C(=O)NC(=O)c3ccc(I)cc32)cc1` (stereo not shown) [Example 221, 6-Iodo-4-{[4-(5-methyl-2,5-diaza-bicyclo[2.2.1]hept-2-yl)-phenylamino]-methylene}-4H-isoquinoline-1,3-dione], the IC50 in the assay on LoVo (three days) is 3.2 µM; in the assay with BT474 (setting [7]) it was 3.2 µM; with HCT-116 (three days), 1.9 µM; at cyclin D1/cdk 4 enzyme (setting [4]), 0.32 µM; with MCF-7 (three days), 2.6 µM; at cyclin B/CDK1 enzyme (setting [6]) it was more than 50 µM.

For the compound `O=C1NC(=O)c2ccc(I)cc2/C1=C/NCc1ccc(-c2ccco2)c(O)c1` [Example 505, 4-[(4-Furan-2-yl-3-hydroxy-benzylamino)-methylene]-6-iodo-4H-isoquinoline-1,3-dione], the 50% inhibitory concentration (IC50) with LoVo (3 days) is 0.27 µM; with BT474 (setting [1]), 0.26 µM; in the assay on HCT-116 (3 days), 0.38 µM; with MCF-7 (3 days), 0.7 µM; at cyclin E/CDK2 enzyme (setting [3]), 8.4 µM.

The values are drawn from US7713994B2 (Wyeth LLC, priority 2005, dated 2010).
